Measured values published in paper PMC8896685 (PLoS ONE, 2022).
pIC50: −log10 of the molar value. Numbered stars: 1 amine (or outer) side, 2 acyl side, 3 side chain; on linkers, the order of the positions; unused ones are H or OH. Square brackets hold non-standard residues; d marks the D form. Side chains are listed from the residue outwards. Peptide text beside a SMILES is read from it. * marks the point of attachment. C18 diacid = O=C(O)CCCCCCCCCCCCCCCCC(=O)*; γGlu = O=C(O)[C@H](CCC(=O)[*:2])N[*:1]; Ac4c = NC1(C(=O)O)CCC1; AEEA = NCCOCCOCC(=O)O; Aib = CC(C)(N)C(=O)O

Columns and labels:
[1] = target: T1, Mouse GLP-1R (Mus musculus, UniProt O35659); test: Receptor potency, CRE-luciferase functional assay in BHK cells; assay type: cell-based; settings: Mouse receptors, whole BHK cells, 3 h 37°C, value (95% CI)
T1 construct: a plasmid encoding either the glucagon receptor or the GLP-1 receptor from the relevant species; expressed in transfected cells
T1 sequence (O35659 22-463): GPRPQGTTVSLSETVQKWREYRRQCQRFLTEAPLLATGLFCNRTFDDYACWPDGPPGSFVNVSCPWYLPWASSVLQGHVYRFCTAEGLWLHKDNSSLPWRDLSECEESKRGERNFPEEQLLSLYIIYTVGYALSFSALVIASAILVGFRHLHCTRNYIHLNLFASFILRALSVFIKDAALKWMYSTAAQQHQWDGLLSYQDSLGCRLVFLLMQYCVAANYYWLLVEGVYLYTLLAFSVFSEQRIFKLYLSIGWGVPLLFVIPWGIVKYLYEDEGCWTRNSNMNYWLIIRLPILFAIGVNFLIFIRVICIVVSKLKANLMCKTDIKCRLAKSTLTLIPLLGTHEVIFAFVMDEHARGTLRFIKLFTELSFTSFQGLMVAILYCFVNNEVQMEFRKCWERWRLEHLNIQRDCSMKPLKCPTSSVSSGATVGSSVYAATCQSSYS
Description: (§1) The binding assay was performed on cell membranes in the presence of 1% (v/v) species-specific heparin-treated pooled plasma (Bioreclamation IVT, Westbury, NY) diluted in assay buffer (50 mM HEPES supplemented with 5 mM EGTA, 5 mM MgCl2, and 0.005% (v/v) Tween 20, pH7.4). […] Cells stably expressing an individual receptor of interest were grown at 5% CO2, 37°C in DMEM (supplemented with 10% FCS, 0.5 mg/ml G418 and 0.3 mg/ml hygromycin). Membrane preparations were made from cells harvested at approximately 80% confluence, washed and homogenized in 20 mM HEPES with 0.1 mM EDTA, pH 7.4. Protein concentration was determined, and the membranes were stored at -80°C until use. The membrane binding assay was performed in a 96-well OptiPlate (PerkinElmer) in a total volume of 200 μl. Test compounds were dissolved in 80% DMSO and further diluted in assay buffer. 50 μl of diluted plasma was added to the assay plate wells followed by addition of test compounds (25 μl), cell membranes (50 μl, 0.06 mg/ml), SPA beads (20 mg/ml in assay buffer) and radioligand (60,000 cpm/well, corresponding to 0.06 nM; 2200 Ci/mmol. Each assay plate was incubated for 2 h at 30°C, centrifuged at 1500 rpm for 10 minutes and counted in a TopCount NXT instrument (PerkinElmer).
Functional assays were performed on whole cells in the absence or presence of 100% species-specific heparin-treated pooled plasma (Bioreclamation IVT). […] The cells were cultured with DMEM (supplemented with GlutaMAX, 10% FBS, 0.5 mg/ml G418 and 0.3 mg/ml hygromycin) at 5% CO2 and 37°C. At approximately 80–90% confluence, cells were washed with PBS and harvested with Versene (Life Technologies, Carlsbad, CA). The cells were counted and plated into 96-well microtiter plates coated with poly-D-Lys (Corning BioCoat) with 5,000 cells/well and thereafter incubated overnight in growth media. The next day the media was changed to assay buffer (DMEM without phenol red, supplemented with GlutaMAX, 10 mM HEPES, 1% ovalbumin and 0.1% Pluronic F-68) or to 100% plasma. In the absence of plasma, compounds were diluted in assay buffer. In assays tested with plasma, compounds were diluted in pure plasma. Buffer was removed from the plates and 50 μl of test compound dilutions was added to the plates followed by 50 μl of plasma or the same buffer used for compound dilution. The assay plates were incubated for 3 h in a 5% CO2 incubator at 37°C. The plates were then transferred to room temperature for 15 min and 100 μl Steadylite Plus reagent (PerkinElmer) was added to each well. The plates were shaken for 30 min at room temperature while protected from light after which luminescence was measured.
(§2) For the receptor binding assays, logIC50 values were calculated using non-linear regression analysis. The error estimation was reported as the 95% confidence interval. […] The calculations were performed in GraphPad Prism 6.4 (GraphPad, San Diego, CA) and error estimation was expressed as the 95% confidence interval. […] Averages, error estimation, ratios and plasma shifts were all calculated on logIC50 or logEC50 values and transformed to the anti-log values for reporting purposes.

[2] = target: T2, Rat GCGR (Rattus norvegicus, UniProt P30082); test: Receptor binding, SPA competitive binding assay; settings: SPA competitive binding on BHK cell membranes, [125I]-glucagon tracer, 1% species specific plasma, 2 h 30°C; value (95% CI)
T2 construct: a plasmid encoding either the glucagon receptor or the GLP-1 receptor from the relevant species; expressed in transfected cells
T2 sequence (P30082 27-485): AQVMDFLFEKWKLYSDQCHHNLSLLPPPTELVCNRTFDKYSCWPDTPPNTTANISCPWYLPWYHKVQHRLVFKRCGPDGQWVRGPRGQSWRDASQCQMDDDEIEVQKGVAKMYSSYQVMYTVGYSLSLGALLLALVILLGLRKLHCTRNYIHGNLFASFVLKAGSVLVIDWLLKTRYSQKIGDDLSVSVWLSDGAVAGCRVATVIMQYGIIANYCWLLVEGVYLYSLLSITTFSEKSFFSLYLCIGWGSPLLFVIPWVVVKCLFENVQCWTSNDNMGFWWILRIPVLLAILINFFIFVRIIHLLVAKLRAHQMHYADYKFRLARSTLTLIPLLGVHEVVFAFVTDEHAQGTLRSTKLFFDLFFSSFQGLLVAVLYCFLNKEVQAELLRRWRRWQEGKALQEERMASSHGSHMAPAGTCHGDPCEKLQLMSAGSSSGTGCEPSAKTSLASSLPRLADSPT
Description: as §1, §2

[3] = tested on: DIO mice; test: Subchronic effect on glucose tolerance in DIO mice (IPGTT at steady state); assay type: in vivo, mouse
Description: Compound exposure was measured by Luminescence Oxygen Channeling Immunoassay (LOCI). […] The three reactants were combined with the analyte and formed a two-sited immuno-complex. Illumination of the complex released singlet oxygen […] from the donor beads. They were channeled into the acceptor beads and triggered a chemiluminescence response which was measured in an EnVision plate reader (PerkinElmer). The amount of light was proportional to the concentration of the analyte. As calibrators, a dilution line of the relevant analyte in rat/mouse plasma was included.
Animals were fasted for 5–6 h prior to intraperitoneal (i.p.) injection of 2 g/kg glucose. Blood glucose was analysed on whole blood from the tail vein of conscious animals using a Biosen S-line glucose analyzer (EKF-diagonistic Gmbh, Barleben, Germany) by the glucose oxidase method, at basal and at t = 15, 30, 60, 90, 180 min post glucose administration.
DIO mice received s.c. injections once daily for 4–5 weeks. Animals were dosed at different times of day to allow for assessment of glucose tolerance and other metabolic parameters at same time of day but at different time points in relation to dosing. […] Body composition was assessed in conscious animals by Magnetic Resonance (MR) scanning prior to initiation of treatment and at the end of the treatment period. Steady-state plasma parameters were assessed in non-fasted animals. Additional DIO mice (n = 4) were included for verification of 24-h peptide exposure in steady state. The mice received s.c. doses daily for 2 weeks (13 days) with 3 nmol/kg NN1177; 5 nmol/kg NN1151 or 5 nmol/kg NN1359, where after plasma sampled after t = 5 h (NN1177) or 6 h (NN1151, NN1359), 10 h (all co-agonists) and 24 h (all co-agonists) post-dosing was analysed for exposure.
Analogues were tested for subchronic effect in two different set-ups. […] The Cmax and Cmin animals were included in separate treatment groups and evaluated head-to-head for glucose tolerance and additional metabolic parameters at the end of the treatment period. […] IPGTT was performed as described above, but additionally blood was sampled from vena facialis of conscious animals at t = 210 min relative to the administration of glucose for exposure analysis.
IPGTT was performed as described above.

[4] = GLP-1R EC50, pM (95% CI) 100% plasma, 100% species-specific plasma
[5] = steady state 5 weeks, 3 and 5 nmol/kg, Cmax (5 h post dosing), p<0.001

| SMILES | EC50 [1, 4] | pIC50 [2] | EC50 ([1]; GLP-1R EC50, pM (95% CI) 0% plasma, 0% plasma) | Glucose tolerance (IPGTT) vs vehicle ([3]; steady state, after 3 weeks daily s.c. dosing, Cmax (5 h post dosing), p<0.001) | Basal blood glucose vs vehicle ([3]; steady state, after 4 weeks daily s.c. dosing, Cmin (24 h post dosing)) | Glucose tolerance (IPGTT) vs vehicle ([3]; steady state, after 4 weeks daily s.c. dosing, Cmin (24 h post dosing), p<0.001) | Glucose tolerance (IPGTT) vs vehicle ([3]; steady state 5 weeks, 3 nmol/kg, Cmin (24 h post dosing), p<0.001) | Glucose tolerance (IPGTT) vs vehicle ([3]; steady state 5 weeks, 5 nmol/kg, Cmin (24 h post dosing)) | Basal blood glucose vs vehicle [3, 5] | Glucose tolerance (IPGTT) vs vehicle [3, 5] | Basal blood glucose vs vehicle ([3]; steady state 5 weeks, Cmin (24 h post dosing), p<0.001) |
| --- | --- | --- | --- | --- | --- | --- | --- | --- | --- | --- | --- |
| CC(C)C[C@H](NC(=O)[C@H](CC(C)C)NC(=O)[C@H](Cc1c[nH]c2ccccc12)NC(=O)[C@H](CCC(N)=O)NC(=O)[C@@H](NC(=O)[C@H](Cc1ccccc1)NC(=O)[C@H](CCC(=O)O)NC(=O)[C@H](CCCNC(=N)N)NC(=O)[C@H](C)NC(=O)[C@H](C)NC(=O)[C@H](CCCNC(=N)N)NC(=O)[C@H](CO)NC(=O)[C@H](CC(=O)O)NC(=O)[C@H](CC(C)C)NC(=O)[C@H](Cc1ccc(O)cc1)NC(=O)[C@H](CCCCN)NC(=O)[C@H](CO)NC(=O)[C@H](CC(C)C)NC(=O)[C@H](CC(=O)O)NC(=O)[C@H](CO)NC(=O)[C@@H](NC(=O)[C@H](Cc1ccccc1)NC(=O)[C@@H](NC(=O)CNC(=O)[C@H](CCC(=O)O)NC(=O)C(C)(C)NC(=O)[C@@H](N)Cc1c[nH]cn1)[C@@H](C)O)[C@@H](C)O)C(C)C)C(=O)N[C@@H](CC(N)=O)C(=O)N[C@@H](CCCCNC(=O)CC[C@H](NC(=O)CC[C@H](NC(=O)COCCOCCNC(=O)COCCOCCNC(=O)CC[C@H](NC(=O)CCCCCCCCCCCCCCCCC(=O)O)C(=O)O)C(=O)O)C(=O)O)C(N)=O [GLP-1 reference] (H-H[Aib]EGTFTSDLSKYLDSRAAREFVQWLLNK([γGlu-γGlu-AEEA-AEEA-γGlu-C18 diacid])-NH2) | 24.6 pM | – | – | – | – | – | – | – | – | – | – |
| CC(C)C[C@H](NC(=O)[C@H](CC(=O)O)NC(=O)[C@H](CC(C)C)NC(=O)[C@H](Cc1ccc(O)cc1)NC(=O)[C@H](CCCCN)NC(=O)[C@H](CO)NC(=O)[C@H](CC(C)C)NC(=O)[C@H](CC(=O)O)NC(=O)[C@H](CO)NC(=O)[C@@H](NC(=O)[C@H](Cc1ccccc1)NC(=O)[C@@H](NC(=O)CNC(=O)[C@H](CCC(N)=O)NC(=O)C1(NC(=O)[C@@H](N)Cc2c[nH]cn2)CCC1)[C@@H](C)O)[C@@H](C)O)C(=O)N[C@@H](CCCNC(=N)N)C(=O)N[C@@H](CCCNC(=N)N)C(=O)N[C@@H](C)C(=O)N[C@@H](CCCNC(=N)N)C(=O)N[C@@H](CC(=O)O)C(=O)N[C@@H](Cc1ccccc1)C(=O)N[C@H](C(=O)N[C@@H](CCC(N)=O)C(=O)N[C@@H](Cc1c[nH]c2ccccc12)C(=O)N[C@@H](CC(C)C)C(=O)N[C@@H](CC(C)C)C(=O)N[C@@H](CCCCNC(=O)CC[C@H](NC(=O)CC[C@H](NC(=O)COCCOCCNC(=O)COCCOCCNC(=O)CC[C@H](NC(=O)CC[C@H](NC(=O)CCCCCCCCCCCCCCCCC(=O)O)C(=O)O)C(=O)O)C(=O)O)C(=O)O)C(=O)N[C@H](C(N)=O)[C@@H](C)O)C(C)C [NN1151] (H-H[Ac4c]QGTFTSDLSKYLDLRRARDFVQWLLK([γGlu-γGlu-AEEA-AEEA-γGlu-γGlu-C18 diacid])T-NH2) | 161 pM | 9.57 | 1.13 pM | improved | at the level of vehicle treated animals | significantly impaired | – | – | – | – | – |
| CC(C)C[C@H](NC(=O)[C@H](Cc1ccc(O)cc1)NC(=O)[C@H](CCCCN)NC(=O)[C@H](CO)NC(=O)[C@H](CC(C)C)NC(=O)[C@H](CC(=O)O)NC(=O)[C@H](CO)NC(=O)[C@@H](NC(=O)[C@H](Cc1ccccc1)NC(=O)[C@@H](NC(=O)CNC(=O)[C@H](CCC(N)=O)NC(=O)C(C)(C)NC(=O)[C@@H](N)Cc1c[nH]cn1)[C@@H](C)O)[C@@H](C)O)C(=O)N[C@@H](CCC(=O)O)C(=O)N[C@@H](CO)C(=O)N[C@@H](CCCCN)C(=O)N[C@@H](CCCNC(=N)N)C(=O)N[C@@H](C)C(=O)N[C@@H](CCCNC(=N)N)C(=O)N[C@@H](CCC(=O)O)C(=O)N[C@@H](Cc1ccccc1)C(=O)N[C@H](C(=O)N[C@@H](CCC(N)=O)C(=O)N[C@@H](Cc1c[nH]c2ccccc12)C(=O)N[C@@H](CC(C)C)C(=O)N[C@@H](CC(C)C)C(=O)N[C@@H](CCCCNC(=O)CC[C@H](NC(=O)CC[C@H](NC(=O)[C@H](CO)NC(=O)[C@H](CCC(=O)O)NC(=O)[C@H](CO)NC(=O)CC[C@H](NC(=O)CC[C@H](NC(=O)CCCCCCCCCCCCCCCCC(=O)O)C(=O)O)C(=O)O)C(=O)O)C(=O)O)C(=O)N[C@H](C(N)=O)[C@@H](C)O)C(C)C [NN1177] (H-H[Aib]QGTFTSDLSKYLESKRAREFVQWLLK([γGlu-γGlu-Ser-Glu-Ser-γGlu-γGlu-C18 diacid])T-NH2) | 12.6 pM | 9.52 | – | – | – | – | impaired | at the level of vehicle | improved | improved | improved |
